According to the NIST ThermoML archive (doi:10.1021/acs.jced.9b00218):
± gives the expanded uncertainty stated by the source. Blank lines part the entries; values can stand above or below the compound they belong to.

How the values were obtained:
[1] = refractive index (Na D-line) (dimensionless); wn = mass fraction of the nth substance listed; details: 298.15 K, 100 kPa, Liquid, Standard Abbe refractometry
[2] = wn = mass fraction of the nth substance listed; details: 298.15 K, 100 kPa, Liquid, Vibrating tube method

refractive index ([1]; w1 = 0.0336): 1.3448 ± 0.002 | mass density ([2]; w1 = 0.0336): 1035.63 ± 12 kg/m3
SMILES: O=B[O-].[Li+] [lithium metaborate] + O

refractive index ([1]; w1 = 0.4388): 1.42543 ± 0.002 | mass density ([2]; w1 = 0.4388): 1539.08 ± 12 kg/m3
SMILES: O=B[O-].[K+] [potassium metaborate] + O

refractive index ([1]; w1 = 0.2259): 1.38898 ± 0.002 | mass density ([2]; w1 = 0.2259): 1280.56 ± 12 kg/m3
SMILES: O=B[O-].[Na+] [sodium metaborate] + O
